From patent publication US20180000085A1, “USE OF PICOLINAMIDE COMPOUNDS WITH FUNGICIDAL ACTIVITY” (DOW AGROSCIENCES LLC, priority 2014, published 2018)

Assays:
Type in all cases: in vivo
Zymoseptoria tritici = experiment: Leaf blotch of wheat (SEPTTR) disease control on wheat seedlings
Alternaria solani = experiment: Tomato early blight (ALTESO) disease control; set-up: key: A: > 80; B: ≤ 80; C: Not Tested; D: No Activity Observed in the Reported Assay; details: 100 ppm, 1 Day Protectant
Method: All fungicides were evaluated using the aforementioned method for their activity vs. all target diseases, unless stated otherwise. Wheat leaf blotch and brown rust activity were also evaluated using track spray applications, in which case the fungicides were formulated as EC formulations, containing 0.1% Trycol 5941 in the spray solutions. Wheat plants (variety Yuma) were grown from seed in a greenhouse in 50% mineral soil/50% soil-less Metro mix until the first leaf was fully emerged, with 7-10 seedlings per pot. These plants were inoculated with an aqueous spore suspension of Zymoseptoria tritici either prior to or after fungicide treatments. After inoculation the plants were kept in 100% relative humidity (one day in a dark dew chamber followed by two to three days in a lighted dew chamber at 20° C.) to permit spores to germinate and infect the leaf. The plants were then transferred to a greenhouse set at 20° C. for disease to develop. When disease symptoms were fully expressed on the 1st leaves of untreated plants, infection levels were assessed on a scale of 0 to 100 percent disease severity. Percent disease control was calculated using the ratio of disease severity on treated plants relative to untreated plants. Example J: Evaluation of Fungicidal Activity: Tomato Early Blight (Alternaria solani; Bayer Code […]) Tomato plants (variety Outdoor Girl) were propagated in soil-less Metro mix, with each pot having one plant, and used when 12 to 14 days old. Test plants were inoculated with an aqueous spore suspension of Alternaria solani 24 hr after fungicide treatments. After inoculation the plants were kept in a dew room at 22° C. with 100% relative humidity for 48 h to permit spores to germinate and infect the leaf. The plants were then transferred to a growth room at 22° C. for disease to develop. Fungicide formulation, application and disease assessment on the sprayed leaves followed the procedures as described in the Example A.

[1] = tested on: Colletotrichum lagenarium; experiment: Cucumber anthracnose (COLLLA) disease control; details: 100 ppm, 1 Day Protectant
Method: All fungicides were evaluated using the aforementioned method for their activity vs. all target diseases, unless stated otherwise. Wheat leaf blotch and brown rust activity were also evaluated using track spray applications, in which case the fungicides were formulated as EC formulations, containing 0.1% Trycol 5941 in the spray solutions. Wheat plants (variety Yuma) were grown from seed in a greenhouse in 50% mineral soil/50% soil-less Metro mix until the first leaf was fully emerged, with 7-10 seedlings per pot. These plants were inoculated with an aqueous spore suspension of Zymoseptoria tritici either prior to or after fungicide treatments. After inoculation the plants were kept in 100% relative humidity (one day in a dark dew chamber followed by two to three days in a lighted dew chamber at 20° C.) to permit spores to germinate and infect the leaf. The plants were then transferred to a greenhouse set at 20° C. for disease to develop. When disease symptoms were fully expressed on the 1st leaves of untreated plants, infection levels were assessed on a scale of 0 to 100 percent disease severity. Percent disease control was calculated using the ratio of disease severity on treated plants relative to untreated plants. Example K: Evaluation of Fungicidal Activity: Cucumber Anthracnose (Colletotrichum lagenarium; Bayer Code COLLLA) Cucumber seedlings (variety Bush Pickle) were propagated in soil-less Metro mix, with each pot having one plant, and used in the test when 12 to 14 days old. Test plants were inoculated with an aqueous spore suspension of Colletotrichum lagenarium 24 hr after fungicide treatments. After inoculation the plants were kept in a dew room at 22° C. with 100% relative humidity for 48 hr to permit spores to germinate and infect the leaf. The plants were then transferred to a growth room set at 22° C. for disease to develop. Fungicide formulation, application and disease assessment on the sprayed leaves followed the procedures as described in the Example A.

Pyricularia oryzae = details: 100 ppm; 1 Day Protectant; rice
[2] = low volume application, 125.1 g/H, 1 Day Protectant
[3] = low volume application, 125.1 g/H, 3 Day Curative

Compound | SEPTTR 1DP disease control rating, HV activity (Zymoseptoria tritici; HV application at 100 ppm, 1 Day Protectant, wheat leaf blotch) | SEPTTR 3DC disease control rating, HV activity (Zymoseptoria tritici; HV application at 100 ppm, 3 Day Curative, wheat leaf blotch) | SEPTTR 1DP disease control rating, LV activity (Zymoseptoria tritici; Low volume application at 125.1 g/H, 1 Day Protectant, wheat leaf blotch) | SEPTTR 3DC disease control rating, LV activity (Zymoseptoria tritici; Low volume application at 125.1 g/H, 3 Day Curative, wheat leaf blotch) | ALTESO disease control, 1DP (Alternaria solani) | COLLLA disease control, 1DP [1] | SEPTTR 1DP, LV activity at 125.1 g/H (% Control rating) (Zymoseptoria tritici; [2]) | SEPTTR 3DC, LV activity at 125.1 g/H (% Control rating) (Zymoseptoria tritici; [3]) | PYRIOR disease control, 1DP (Pyricularia oryzae) | SEPTTR 1DP disease control rating, LV activity at 125.1 g/H (Zymoseptoria tritici; low volume application, 125.1 g/H, 1 day protectant) | SEPTTR 3DC disease control rating, LV activity at 125.1 g/H (Zymoseptoria tritici; low volume application, 125.1 g/H, 3 day curative)
CCCOC(CC)C(Oc1ccccc1)C(C)OC(=O)C(C)NC(=O)c1nccc(OC)c1OCOC(C)=O (stereo not shown) [Cmpd 446] | A (> 80) | A (> 80) | A (> 80) | A (> 80) | D | B (≤ 80) | – | – | – | – | –
COc1ccnc(C(=O)N[C@@H](C)C(=O)O[C@@H](C)[C@H](Oc2ccccc2)C(C)C)c1OCOC(C)=O [Cmpd 475] | – | – | – | – | B (≤ 80) | A (> 80) | A (> 80) | A (> 80) | A (> 80) | – | –
CC[C@@H](CCOC)[C@@H](Oc1ccccc1)[C@H](C)OC(=O)[C@H](C)NC(=O)c1nccc(OC)c1OCOC(C)=O [Cmpd 476] | – | – | – | – | B (≤ 80) | B (≤ 80) | A (> 80) | A (> 80) | A (> 80) | – | –
CCC(CC)[C@@H](Oc1ccccc1)[C@H](C)OC(=O)[C@H](C)NC(=O)c1nccc(OC)c1OCOC(C)=O [Cmpd 477] | – | – | – | – | B (≤ 80) | A (> 80) | A (> 80) | A (> 80) | A (> 80) | – | –
COc1ccnc(C(=O)N[C@@H](C)C(=O)O[C@@H](C)[C@H](Oc2ccccc2)C(C)C)c1OC(C)=O [Cmpd 478] | – | – | – | – | B (≤ 80) | B (≤ 80) | A (> 80) | A (> 80) | A (> 80) | – | –
CCC(CC)[C@@H](Oc1ccccc1)[C@H](C)OC(=O)[C@H](C)NC(=O)c1nccc(OC)c1OC(C)=O [Cmpd 479] | – | – | – | – | B (≤ 80) | A (> 80) | A (> 80) | A (> 80) | A (> 80) | – | –
CC[C@@H](CCOC)[C@@H](Oc1ccccc1)[C@H](C)OC(=O)[C@H](C)NC(=O)c1nccc(OC)c1OC(C)=O [Cmpd 482] | – | – | – | – | B (≤ 80) | A (> 80) | A (> 80) | A (> 80) | A (> 80) | – | –
COc1ccnc(C(=O)N[C@@H](C)C(=O)O[C@@H](C)[C@H](Oc2ccccc2)c2ccccc2)c1OCOC(C)=O [Cmpd 500] | – | – | – | – | B (≤ 80) | A (> 80) | A (> 80) | A (> 80) | A (> 80) | – | –
COc1ccnc(C(=O)N[C@@H](C)C(=O)O[C@H](C)[C@@H](Oc2ccccc2)c2ccccc2)c1OCOC(C)=O [Cmpd 547] | – | – | – | – | B (≤ 80) | – | A (> 80) | A (> 80) | – | – | –
COc1ccnc(C(=O)N[C@H](C)C(=O)O[C@H](C)[C@@H](Oc2ccccc2)C(C)C)c1OCOC(C)=O [Cmpd 548] | – | – | – | – | B (≤ 80) | – | B (≤ 80) | B (≤ 80) | – | – | –
COc1ccnc(C(=O)N[C@H](C)C(=O)O[C@H](C)[C@@H](Oc2ccccc2)c2ccccc2)c1OCOC(C)=O [Cmpd 549] | – | – | – | – | B (≤ 80) | – | B (≤ 80) | B (≤ 80) | – | – | –
COc1ccnc(C(=O)N[C@@H](C)C(=O)O[C@@H](C)[C@@H](Oc2ccccc2)C(C)C)c1OCOC(C)=O [Cmpd 552] | – | – | – | – | B (≤ 80) | – | A (> 80) | A (> 80) | – | – | –
COc1ccnc(C(=O)N[C@@H](C)C(=O)O[C@@H](C)[C@H](Oc2ccccc2)C2CCCC2)c1OCOC(C)=O [Cmpd 556] | – | – | – | – | B (≤ 80) | A (> 80) | A (> 80) | A (> 80) | A (> 80) | – | –
COc1ccnc(C(=O)N[C@@H](C)C(=O)O[C@@H](C)[C@@H](CC(C)C)Oc2ccccc2)c1OCOC(C)=O [Cmpd 557] | – | – | – | – | B (≤ 80) | – | A (> 80) | A (> 80) | – | – | –
COc1ccnc(C(=O)N[C@H](C)C(=O)O[C@@H](C)[C@H](Oc2ccccc2)C(C)C)c1OCOC(C)=O [Cmpd 558] | – | – | – | – | B (≤ 80) | – | B (≤ 80) | B (≤ 80) | – | – | –
COc1ccnc(C(=O)N[C@H](C)C(=O)O[C@@H](C)[C@@H](Oc2ccccc2)C(C)C)c1OCOC(C)=O [Cmpd 559] | – | – | – | – | B (≤ 80) | – | B (≤ 80) | A (> 80) | – | – | –
COc1ccnc(C(=O)N[C@H](C)C(=O)O[C@H](C)[C@H](Oc2ccccc2)C(C)C)c1OCOC(C)=O [Cmpd 560] | – | – | – | – | B (≤ 80) | – | B (≤ 80) | B (≤ 80) | – | – | –
COc1ccnc(C(=O)N[C@@H](C)C(=O)O[C@@H](C)[C@H](Oc2cccc(Cl)c2)C(C)C)c1OC(C)=O [Cmpd 566] | – | – | – | – | B (≤ 80) | A (> 80) | B (≤ 80) | A (> 80) | – | – | –
COc1ccnc(C(=O)N[C@@H](C)C(=O)O[C@@H](C)[C@H](Oc2cc(F)cc(Cl)c2)C(C)C)c1OCOC(C)=O [Cmpd 617] | – | – | – | – | D | A (> 80) | A (> 80) | A (> 80) | – | – | –
CCC(C)C(Oc1ccccc1)C(C)OC(=O)C(C)NC(=O)c1nccc(OC)c1OC(C)=O (stereo not shown) [Cmpd 691] | – | – | – | – | D | A (> 80) | – | – | – | A (> 80) | A (> 80)
